Columns and labels:
[1] = biological target: T1, human thyroid receptor alpha ligand-binding domain (LBD) (Homo sapiens, UniProt P10827); test: TR-FRET thyroid receptor alpha coactivator assay (THR biochemical assay, Assay 1); settings: for EC50: Table 4, THR-alpha, read-out: Activity category Assay 1 (EC50, THR-alpha agonist activity); for Emax / Activity category Assay 1 THRα (Emax): Table 5, THRα; for Emax: read-out: Activity category Assay 1 THRα (Emax)
T1 construct: purchased Invitrogen
Method in brief: (§1)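 GST-tagged human TRβ or TRα LBD, 1 nM final (stated for β), with fluorescein-SRC2-2 coactivator peptide (200 nM) and Tb-anti-GST antibody (2 nM). Agonists serially diluted, 1% DMSO final. 1 h incubation at rt in the dark; TR-FRET read as rise in fluorescein and drop in terbium emission.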

[2] = biological target: T2, human thyroid receptor beta ligand-binding domain (LBD) (Homo sapiens, UniProt P10828); test: TR-FRET thyroid receptor beta coactivator assay (THR biochemical assay, Assay 1); settings: for EC50: THR-beta, TR-FRET coactivator assay, read-out: Activity category Assay 1 (EC50, THR-beta agonist); for Emax / Activity category Assay 1 THRβ (Emax): Table 5, Assay 1, THRβ; for Emax: read-out: Activity category Assay 1 THRβ (Emax)
T2 construct: purchased Invitrogen
T2 sequence (P10828 217-461 limits assumed): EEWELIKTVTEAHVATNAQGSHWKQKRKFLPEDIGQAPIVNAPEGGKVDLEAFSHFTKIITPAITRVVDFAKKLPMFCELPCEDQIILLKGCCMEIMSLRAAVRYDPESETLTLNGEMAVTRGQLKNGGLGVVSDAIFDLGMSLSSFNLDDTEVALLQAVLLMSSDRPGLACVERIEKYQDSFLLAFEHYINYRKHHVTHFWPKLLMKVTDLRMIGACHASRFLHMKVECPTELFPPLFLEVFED
Method in brief: as §1

T1 sequence (P10827 163-410 isoform P10827-2 limits assumed, other chains not shown): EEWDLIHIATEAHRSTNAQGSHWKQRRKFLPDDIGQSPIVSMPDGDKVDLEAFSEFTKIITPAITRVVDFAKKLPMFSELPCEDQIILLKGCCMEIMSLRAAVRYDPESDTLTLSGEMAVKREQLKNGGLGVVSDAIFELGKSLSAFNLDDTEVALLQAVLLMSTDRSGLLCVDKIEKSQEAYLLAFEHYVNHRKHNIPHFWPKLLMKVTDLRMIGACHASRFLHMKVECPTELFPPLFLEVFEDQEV

CC(c1cc(Oc2c(Cl)cc(-n3nc(N)c(=O)[nH]c3=O)cc2Cl)n[nH]c1=O)C1CC(F)(F)C1 (single isomer, unassigned) [Compound 61-A, 6-amino-2-[3,5-dichloro-4-([5-[1-(3,3-difluorocyclobutyl)ethyl]-6-oxo-1H-pyridazin-3-yl]oxy)phenyl]-4H-1,2,4-tri-azine-3,5-dione]
EC50 [1]: 50 to 250 nM | Emax [1]: 50 to 75% | EC50 [2]: < 50 nM | Emax [2]: 50 to 75%

CC(c1cc(Oc2c(Cl)cc(-n3nc(N)c(=O)[nH]c3=O)cc2Cl)n[nH]c1=O)C1CC(F)(F)C1 (single isomer, unassigned) [Compound 61-B, 6-amino-2-[3,5-dichloro-4-([5-[1-(3,3-difluorocyclobutyl)ethyl]-6-oxo-1H-pyridazin-3-yl]oxy)phenyl]-4H-1,2,4-tri-azine-3,5-dione]
EC50 [1]: 1000 to 25000 nM | Activity category Assay 1 THRα (Emax) [1]: C (Emax<50%) | EC50 [2]: 50 to 250 nM | Activity category Assay 1 THRβ (Emax) [2]: C (Emax<50%)

C[C@H]1C[C@H](c2cc(Oc3c(Cl)cc(-n4nc(N)c(=O)[nH]c4=O)cc3Cl)n[nH]c2=O)C1 (single isomer, unassigned) [Compound 86-A, 6-Amino-2-(3,5-dichloro-4-((5-((1r,3r)-3-methylcyclobutyl)-6-oxo-1,6-dihydropyridazin-3-yl)oxy)phenyl)-1,2,4-triazine-3,5(2H,4H)-dione]
EC50 [1]: 250 to 1000 nM | Emax [1]: < 50% | EC50 [2]: 50 to 250 nM | Emax [2]: < 50%

CC(c1ccccc1)c1cc(Oc2c(Cl)cc(-n3nc(N)c(=O)[nH]c3=O)cc2Cl)n[nH]c1=O (single isomer, unassigned) [Compound 164, 6-Amino-2-(3,5-dichloro-4-((6-oxo-5-(1-phenylethyl)-1,6-dihydropyridazin-3-yl)oxy)phenyl)-1,2,4-triazine-3,5(2H,4H)-dione]
EC50 [1]: 50 to 250 nM | Activity category Assay 1 THRα (Emax) [1]: C (Emax<50%) | EC50 [2]: < 50 nM | Activity category Assay 1 THRβ (Emax) [2]: C (Emax<50%)

CC(C)c1c[nH]c2ccc(Oc3c(Cl)cc(-n4nc(C#N)c(=O)[nH]c4=O)cc3Cl)cc12 [Compound 1, 2-[3,5-dichloro-4-[(3-isopropyl-1H-indol-5-yl)oxy]-phenyl]-3,5-dioxo-4H-1,2,4-tri-azine-6-carbonitrile]
EC50 [1]: < 50 nM | Emax [1]: < 50% | EC50 [2]: < 50 nM | Emax [2]: 50 to 75%

CC(C)c1cc(Oc2c(Cl)cc(-c3nn(C)c(=O)[nH]c3=O)cc2Cl)n[nH]c1=O [Compound 16, 6-[3,5-dichloro-4-[(5-isopropyl-6-oxo-1H-pyridazin-3-yl)oxy]phenyl]-2-methyl-4H-1,2,4-triazine-3,5-dione]
EC50 [1]: 250 to 1000 nM | Emax [1]: < 50% | EC50 [2]: 50 to 250 nM | Emax [2]: 50 to 75%

CC(C)c1c[nH]c2ccc(Oc3c(Cl)cc(-n4nc(C#N)c(=O)[nH]c4=O)cc3Cl)nc12 [Compound 18]
EC50 [1]: > 25000 nM | Emax [1]: < 50% | EC50 [2]: < 50 nM | Emax [2]: < 50%

Cc1cc(-n2nc(C#N)c(=O)[nH]c2=O)cc(C)c1Cc1ccc2[nH]cc(C(C)C)c2n1 [Compound 31, 2-[4-[(3-isopropyl-1H-pyrrolo[3,2-b]pyridin-5-yl)methyl]-3,5-dimethyl-phenyl]-3,5-dioxo-1,2,4-triazine-6-carbonitrile]
EC50 [1]: < 50 nM | Emax [1]: < 50% | EC50 [2]: < 50 nM | Emax [2]: 50 to 75%

CCC(C)c1cc(Oc2c(Cl)cc(-n3nc(N)c(=O)[nH]c3=O)cc2Cl)n[nH]c1=O (stereo not drawn) [Compound 39-A]
EC50 [1]: 250 to 1000 nM | Activity category Assay 1 THRα (Emax) [1]: B (Emax≥50%, and <75%) | EC50 [2]: < 50 nM | Activity category Assay 1 THRβ (Emax) [2]: C (Emax<50%)

CCC(C)c1cc(Oc2c(Cl)cc(-n3nc(N)c(=O)[nH]c3=O)cc2Cl)n[nH]c1=O (stereo not drawn) [Compound 39-B]
EC50 [1]: 50 to 250 nM | Activity category Assay 1 THRα (Emax) [1]: B (Emax≥50%, and <75%) | EC50 [2]: < 50 nM | Activity category Assay 1 THRβ (Emax) [2]: B (Emax≥50%, and <75%)

Nc1nn(-c2cc(Cl)c(Oc3cc(C4CCC4)c(=O)[nH]n3)c(Cl)c2)c(=O)[nH]c1=O [Compound 40, 6-amino-2-[3,5-dichloro-4-[(5-cyclobutyl-6-oxo-1H-pyridazin-3-yl)oxy]phenyl]-4H-1,2,4-triazine-3,5-dione]
EC50 [1]: 50 to 250 nM | Emax [1]: 50 to 75% | EC50 [2]: < 50 nM | Emax [2]: 50 to 75%

Cc1cc(-n2nc(N)c(=O)[nH]c2=O)cc(C)c1Cc1ccc(O)c(-c2ccccc2)n1 [Compound 43, 6-amino-2-[4-[(5-hydroxy-6-phenylpyridin-2-yl)-methyl]-3,5-dimethylphenyl]-4H-1,2,4-triazine-3,5-dione]
EC50 [1]: < 50 nM | Emax [1]: > 75% | EC50 [2]: < 50 nM | Emax [2]: > 75%

CC(C)c1c[nH]c2nnc(Oc3c(Cl)cc(-n4nc(C#N)c(=O)[nH]c4=O)cc3Cl)cc12 [Compound 52, 2-[3,5-dichloro-4-([5-isopropyl-7H-pyrrolo[2,3-c]pyridazin-3-yl]oxy)phenyl]-3,5-dioxo-4H-1,2,4-triazine-6-carbonitrile]
EC50 [1]: 1000 to 25000 nM | Emax [1]: < 50% | EC50 [2]: 50 to 250 nM | Emax [2]: < 50%

Cc1cc(-n2ncc(=O)[nH]c2=O)cc(C)c1Cc1ccc2[nH]cc(C(C)C)c2n1 [Compound 54, 2-[4-[(3-isopropyl-1H-pyrrolo[3,2-b]pyridine-5-yl)methyl]-3,5-dimethyl-phenyl]-1,2,4-triazine-3,5-dione]
EC50 [1]: < 50 nM | Emax [1]: < 50% | EC50 [2]: < 50 nM | Emax [2]: 50 to 75%

Cc1cc(-n2nc(N)c(=O)[nH]c2=O)cc(C)c1Cc1ccc2[nH]cc(C(C)C)c2n1 [Compound 55, 6-amino-2-[4-[(3-isopropyl-1H-pyrrolo[3,2-b]pyridin-5-yl)methyl]-3,5-dimethyl-phenyl]-1,2,4-triazine-3,5-dione]
EC50 [1]: < 50 nM | Emax [1]: 50 to 75% | EC50 [2]: < 50 nM | Emax [2]: 50 to 75%

Nc1nn(-c2cc(Cl)c(Oc3cc(-c4ccc5ccccc5c4)c(=O)[nH]n3)c(Cl)c2)c(=O)[nH]c1=O [Compound 67, 6-amino-2-(3,5-dichloro-4-[[5-(naphthalen-2-yl)-6-oxo-1H-pyridazin-3-yl]oxy]phenyl)-4H-1,2,4-triazine-3,5-dione]
EC50 [1]: 1000 to 25000 nM | Emax [1]: < 50% | EC50 [2]: 50 to 250 nM | Emax [2]: < 50%

Nc1nn(-c2cc(Cl)c(Oc3n[nH]c(=O)cc3-c3ccc4ccccc4c3)c(Cl)c2)c(=O)[nH]c1=O [Compound 67-A, 6-amino-2-(3,5-dichloro-4-((4-(naphthalen-2-yl)-6-oxo-1,6-dihydropyridazin-3-yl)oxy)phenyl)-1,2,4-triazine-3,5(2H,4H)-dione]
EC50 [1]: > 25000 nM | Emax [1]: < 50% | EC50 [2]: < 50 nM | Emax [2]: < 50%

Cc1cccc(-c2cc(Oc3c(Cl)cc(-n4nc(N)c(=O)[nH]c4=O)cc3Cl)n[nH]c2=O)c1 [Compound 70, 6-Amino-2-(3,5-dichloro-4-((6-oxo-5-(m-tolyl)-1,6-dihydropyridazin-3-yl)oxy)phenyl)-1,2,4-triazine-3,5(2H,4H)-dione]
EC50 [1]: 50 to 250 nM | Emax [1]: < 50% | EC50 [2]: < 50 nM | Emax [2]: < 50%

Nc1nn(-c2cc(Cl)c(Oc3cc(-c4ccc5c(c4)CCCC5)c(=O)[nH]n3)c(Cl)c2)c(=O)[nH]c1=O [Compound 72, 6-Amino-2-(3,5-dichloro-4-((6-oxo-5-(5,6,7,8-tetrahydro-naphthalen-2-yl)-1,6-dihydro-pyridazin-3-yl)oxy)phenyl)-1,2,4-triazine-3,5(2H,4H)-dione]
EC50 [1]: > 25000 nM | Emax [1]: < 50% | EC50 [2]: 50 to 250 nM | Emax [2]: < 50%

Nc1nn(-c2cc(Cl)c(Oc3n[nH]c(=O)cc3-c3ccc4c(c3)CCCC4)c(Cl)c2)c(=O)[nH]c1=O [Compound 72-A, 6-amino-2-(3,5-dichloro-4-[[6-oxo-4-(5,6,7,8-tetrahydronaphthalen-2-yl)-1H-pyridazin-3-yl]oxy]phenyl)-4H-1,2,4-triazine-3,5-dione]
EC50 [1]: 50 to 250 nM | Emax [1]: < 50% | EC50 [2]: < 50 nM | Emax [2]: < 50%

CC(C)c1n[nH]c2nnc(Oc3c(Cl)cc(-n4nc(C#N)c(=O)[nH]c4=O)cc3Cl)cc12 [Compound 75A, 2-(3,5-Dichloro-4-((3-isopropyl-1H-pyrazolo[3,4-c]pyridazin-5-yl)oxy)phenyl)-3,5-dioxo-2,3,4,5-tetrahydro-1,2,4-triazine-6-carbonitrile]
EC50 [1]: 50 to 250 nM | Emax [1]: < 50% | EC50 [2]: < 50 nM | Emax [2]: 50 to 75%

Nc1nn(-c2cc(Cl)c(Oc3ccc4c(c3)C3(CCCC3)C(=O)N4)c(Cl)c2)c(=O)[nH]c1=O [Compound 83]
EC50 [1]: < 50 nM | Emax [1]: 50 to 75% | EC50 [2]: < 50 nM | Emax [2]: 50 to 75%

CC1(C)CC(c2cc(Oc3c(Cl)cc(-n4nc(N)c(=O)[nH]c4=O)cc3Cl)n[nH]c2=O)C1 [Compound 89, 6-Amino-2-(3,5-dichloro-4-((5-(3,3-dimethylcyclobutyl)-6-oxo-1,6-dihydropyridazin-3-yl)oxy)phenyl)-1,2,4-triazine-3,5(2H,4H)-dione]
EC50 [1]: 250 to 1000 nM | Emax [1]: < 50% | EC50 [2]: < 50 nM | Emax [2]: < 50%

Cc1cc(-n2nc(C#N)c(=O)[nH]c2=O)cc(C)c1Cc1ccc2[nH]c(=O)cc(C(C)C)c2c1 [Compound 90, 2-(4-((4-Isopropyl-2-oxo-1,2-dihydroquinolin-6-yl)methyl)-3,5-dimethylphenyl)-3,5-dioxo-2,3,4,5-tetrahydro-1,2,4-triazine-6-carbonitrile]
EC50 [1]: 50 to 250 nM | Emax [1]: < 50% | EC50 [2]: < 50 nM | Emax [2]: < 50%
